Compound: CCOC1=CC=CC=C1N=NC2=C(NN(C2=O)C3=NC(=CS3)C4=CC=CC=C4)C [BAM7] + NC(=O)Nc1cc(-c2cccc(F)c2)sc1C(=O)N[C@H]1CCCNC1 [AZD7762] (partner 0.2 µM)
Experiment: relative viability (nuclei count vs DMSO), 5 days (fraction); higher = more cells survive
In short: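 For relative viability, nuclei counts in treated wells were divided by those in vehicle wells. Lung cancer cell lines had been pin-tool dosed in 1536-well plates the day after seeding and cultured for 5 days, then fixed and stained in one step (final 0.05% Triton X-100, 1% formaldehyde, 1 ug/ml Hoechst) and imaged at 4×. Doses were one drug alone or a fixed anchor-drug dose plus five library-drug doses (not always all listed) in √10 steps, and values are duplicate-plate medians.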

| Cell Line | relative viability (first compound 0.5 µM) | relative viability (first compound 5 µM) | relative viability (first compound 15.81 µM) | relative viability (first compound 50 µM) |
| --- | --- | --- | --- | --- |
| 201T | 0.705 | 0.688 | 0.715 | 0.678 |
| A-427 | 0.743 | 0.848 | 0.802 | 0.737 |
| ABC-1 | 0.755 | 1.29 | 0.863 | 0.783 |
| BEN | 0.689 | 0.802 | 0.939 | 0.74 |
| CAL-12T | 0.589 | 0.714 | 0.557 | 0.609 |
| ChaGo-K-1 | 0.831 | 0.891 | 0.843 | 0.808 |
| EKVX | 0.871 | 0.617 | 0.668 | 0.704 |
| EMC-BAC-2 | 1.15 | 0.999 | 1.22 | 1.24 |
| EPLC-272H | 0.23 | 0.301 | 0.226 | 0.289 |
| H3255 | 0.831 | 0.838 | 0.73 | 0.847 |
| HARA | 0.21 | 0.269 | 0.356 | 0.195 |
| HCC-15 | 1.29 | 1.24 | 1.06 | 1.21 |
| HCC-44 | 1.03 | 0.964 | 1.05 | 0.983 |
| HCC-78 | 0.635 | 1.4 | 0.702 | 0.627 |
| HCC-366 | 0.173 | 0.19 | 0.191 | 0.186 |
| HCC-827 | 0.199 | 0.201 | 0.284 | 0.182 |
| HOP-62 | 0.648 | 0.917 | 0.733 | 0.342 |
| LC-2-ad | 0.916 | 0.832 | 0.832 | 0.805 |
| LCLC-97TM1 | 0.222 | 0.172 | 0.29 | 0.252 |
| LCLC-103H | 0.825 | 0.88 | 0.725 | 0.781 |
| LK-2 | 0.407 | 0.472 | 0.515 | 0.404 |

| Cell Line | relative viability (first compound 0.5 µM) | relative viability (first compound 5 µM) | relative viability (first compound 15.81 µM) | relative viability (first compound 50 µM) |
| --- | --- | --- | --- | --- |
| LOU-NH91 | 0.796 | 0.794 | 0.75 | 0.793 |
| LU99A | 0.371 | 0.438 | 0.35 | 0.293 |
| LXF-289 | 1.12 | 1.17 | 1.13 | 1.04 |
| NCI-H23 | 0.165 | 0.35 | 0.287 | 0.255 |
| NCI-H322M | 0.554 | 0.467 | 0.544 | 0.583 |
| NCI-H358 | 0.62 | 0.519 | 0.5 | 0.55 |
| NCI-H441 | 1.35 | 1.46 | 0.888 | 1.12 |
| NCI-H460 | 0.595 | 0.751 | 0.494 | 0.571 |
| NCI-H522 | 0.748 | 0.967 | 0.851 | 0.851 |
| NCI-H596 | 1.27 | 1.12 | 0.92 | 1.05 |
| NCI-H647 | 0.559 | 0.488 | 0.592 | 0.459 |
| NCI-H650 | 0.913 | 0.992 | 1.01 | 1.15 |
| NCI-H727 | 0.586 | 0.675 | 0.678 | 0.41 |
| NCI-H838 | 0.919 | 0.968 | 0.862 | 1 |
| NCI-H1355 | 0.654 | 0.66 | 0.68 | 0.697 |
| NCI-H1395 | 0.395 | 0.407 | 0.394 | 0.421 |
| NCI-H1437 | 1.1 | 1.11 | 0.945 | 1.02 |
| NCI-H1648 | 0.489 | 0.775 | 0.633 | 0.921 |
| NCI-H1651 | 0.444 | 0.46 | 0.473 | 0.45 |
| NCI-H1666 | 0.847 | 0.826 | 0.902 | 0.762 |
| NCI-H1703 | 0.14 | 0.115 | 0.122 | 0.132 |

| Cell Line | relative viability (first compound 0.5 µM) | relative viability (first compound 5 µM) | relative viability (first compound 15.81 µM) | relative viability (first compound 50 µM) |
| --- | --- | --- | --- | --- |
| NCI-H1734 | 0.559 | 0.642 | 0.526 | 0.548 |
| NCI-H1755 | 0.472 | 0.437 | 0.495 | 0.405 |
| NCI-H1792 | 0.681 | 0.65 | 0.605 | 0.633 |
| NCI-H1793 | 0.544 | 0.341 | 0.428 | 0.426 |
| NCI-H1915 | 0.676 | 0.671 | 0.759 | 0.741 |
| NCI-H1944 | 0.51 | 0.525 | 0.508 | 0.623 |
| NCI-H1975 | 0.725 | 0.763 | 0.642 | 0.632 |
| NCI-H1993 | 0.814 | 0.624 | 0.495 | 0.665 |
| NCI-H2085 | 0.967 | 0.709 | 0.915 | 0.991 |
| NCI-H2087 | 1.34 | 1.47 | 1.25 | 1.07 |
| NCI-H2126 | 0.804 | 0.983 | 1.03 | 0.936 |
| NCI-H2170 | 0.652 | 0.691 | 0.614 | 0.804 |
| NCI-H2342 | 0.53 | 0.61 | 0.431 | 0.388 |
| NCI-H2347 | 0.768 | 0.657 | 0.902 | 0.794 |
| NCI-H2405 | 0.832 | 0.862 | 0.811 | 0.758 |
| NCI-H3122 | 0.946 | 1.13 | 0.918 | 0.846 |
| PC-3 [JPC-3] | 0.889 | 0.74 | 0.64 | 0.686 |
| PC-14 | 0.356 | 0.317 | 0.334 | 0.374 |
| RERF-LC-KJ | 0.992 | 1.11 | 0.855 | 0.627 |
| SW 900 | – | 0.592 | – | 0.691 |

Source: the supplement of paper PMC10307832
